Laboratory results: PubChem BioAssay (NCI)
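Compound exposure: 48 hours, 5 concentrations, 96-well plates. TGI denotes the concentration required for complete inhibition of growth.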

Columns and labels:
Experiment in all cases: NCI anticancer screen, dose series, 48 h
A549 NSCLC = tested on: A549 NSCLC
DLD-1 colon = tested on: DLD-1 colon
DMS 273 small cell lung = tested on: DMS 273 small cell lung
KM20L2 colon = tested on: KM20L2 colon
M19-MEL melanoma = tested on: M19-MEL melanoma
NCI-H23 lung = tested on: NCI-H23 lung
OVCAR-8 ovarian = tested on: OVCAR-8 ovarian
SK-MEL-5 melanoma = tested on: SK-MEL-5 melanoma
TK-10 renal = tested on: TK-10 renal
UACC-62 melanoma = tested on: UACC-62 melanoma
UO-31 renal = tested on: UO-31 renal

Row | SMILES | TGI (A549 NSCLC) [µM] | TGI (DLD-1 colon) [µM] | TGI (DMS 273 small cell lung) [µM] | TGI (KM20L2 colon) [µM] | TGI (M19-MEL melanoma) [µM] | TGI (NCI-H23 lung) [µM] | TGI (OVCAR-8 ovarian) [µM] | TGI (SK-MEL-5 melanoma) [µM] | TGI (TK-10 renal) [µM] | TGI (UACC-62 melanoma) [µM] | TGI (UO-31 renal) [µM]
1 | O=C(NC(=Nc1ccccc1)SCSC(=Nc1ccccc1)NC(=O)c1ccco1)c1ccco1 | > 100 | > 100 | > 100 | > 100 | > 100 | 80.6 | > 100 | > 100 | 70.4 | > 100 | > 100
2 | Cc1cc(=O)oc2cc(OCCCOc3ccc4c(C)cc(=O)oc4c3)ccc12 | > 100 | > 100 | > 100 | > 100 | > 100 | > 100 | > 100 | > 100 | > 100 | > 100 | > 100
3 | O=C(Cc1ccccc1[N+](=O)[O-])C(CO)c1ccccc1[N+](=O)[O-] (configuration not stated) | > 100 | > 100 | > 100 | > 100 | > 100 | > 100 | > 100 | > 100 | > 100 | > 100 | > 100
4 | C/C(CCn1[nH]c(=O)ccc1=O)=N\NC(=O)C(N)=O | > 100 | > 100 | > 100 | > 100 | > 100 | > 100 | > 100 | > 100 | > 100 | > 100 | > 100
5 | O=C(O)CN(c1ccccc1)S(=O)(=O)c1cccc([N+](=O)[O-])c1 | > 100 | > 100 | > 100 | > 100 | > 100 | > 100 | > 100 | > 100 | > 100 | > 100 | > 100
6 | CC(=O)c1ccccc1NC(=O)C(=O)C(C(=O)c1ccc2ccccc2c1)C1OC(=O)c2ccccc21 (configuration not stated) | 70.5 | 32.3 | 44.5 | 94 | 22.8 | 26.8 | 94.8 | 24.4 | 92.4 | 28.1 | 29.1
7 | N#CCCN(CCC#N)c1ccc(/C=C(/NC(=O)c2cc([N+](=O)[O-])ccc2Cl)C(=O)NN)cc1 | > 100 | > 100 | > 100 | > 100 | > 100 | > 100 | > 100 | > 100 | > 100 | > 100 | > 100
8 | Nc1nc(NCCOCP(=O)(O)O)c([N+](=O)[O-])c(=O)[nH]1 | > 100 | > 100 | > 100 | > 100 | > 100 | > 100 | > 100 |  | > 100 | > 100 | > 100
9 | CCC12CCCN(Cc3ccccc3)C1c1c(n(C)c3ccccc13)C(CO)C2 (configuration not stated) | > 257 | > 257 | 89.7 | 78.1 | 125 | 158 | 186 | 76.9 | 246 | 115 | 
10 | COc1cccc(C=O)c1C(=O)c1cc(O)ccc1O | > 100 | 30.3 | > 100 | > 100 | 79.8 | > 100 | 46.5 | > 100 | > 56.7 | > 100 | 33.6
11 | COc1cc2c(cc1OC)C(C#N)N(C(=O)c1ccccc1)C=C2OC(=O)c1ccccc1 (configuration not stated) |  | > 100 | 45.4 | > 100 | 90.5 | > 100 | 71.8 | 44.9 | 50.5 | 45 | 39.3
12 | O=C(COc1ccccc1Cl)N1N=C(c2ccccc2)CC1(O)c1ccccc1 (configuration not stated) | 44.4 | 53.7 | 31.8 | 29.6 | 41.6 | 25.1 | 32.1 |  | 49.2 | 33.5 | 35.9
13 | O=C1C=C(Nc2ccccc2C(=O)CC(=O)C(=O)Nc2ccc(Cl)cc2)c2ccccc2C1=O | 32.4 | 35.7 | 31.1 | > 100 | 4.41 | 29.6 | 37.4 | 15.4 | > 100 | 29.8 | 65.6
14 | Cc1cc(=O)[nH]c(CNC(=O)c2ccc3ccccc3c2)n1 | > 100 | > 100 | > 100 | > 100 | > 100 | > 100 | > 100 | > 100 | > 100 | > 100 | > 100
15 | CC(C)(C)N/N=C(\C(=O)Nc1cccc(Cl)c1)C1C(=O)Nc2ccccc2S1=O (configuration not stated) | > 100 | > 100 | > 100 | > 100 | > 100 | > 100 | > 100 | > 100 | > 100 | > 100 | > 100
16 | COC(=O)[C@H]1COC(=S)N1C(=O)[C@@H](C)[C@H](O)C(C)C | > 100 | > 100 | > 100 | > 100 | > 100 | > 100 | > 100 | > 100 | > 100 | > 100 | > 100
